The values that follow come from patent publication US20230123140A1, “DOSE TREATMENTS OF TAUOPATHIES” (AC Immune SA, priority 2020, published 2023).

Read-outs that look alike come from different tables or passages of the source. A value given as a limit tells only on which side of the number the result lay.

Data set [1] can be described thus: Pharmacokinetics in SAD and MAD studies (plasma, urine). The class given is in vivo. As for the experimental part:
Secondary Objectives: • To assess the PK of ACI-3024 in plasma, urine, and cerebrospinal fluid (CSF). • To compare the plasma and urine PK parameters of ACI-3024 following single oral doses in the fed and fasting states.
In each of Cohorts S1 to S5, 6 subjects (including 3 Japanese subjects in Cohorts S2 through S5) received ACI-3024 and 2 subjects (including 1 Japanese subject in Cohorts S2 through S5) received placebo. All doses were administered in the fasting state in accordance with a randomization schedule on the morning of Day 1, except for subjects in the food-effect cohort (Cohort S4), who were dosed 30 minutes after starting a high-fat breakfast in Treatment Period 2 only. Each subject received only a single dose of ACI-3024 or placebo during the study, except for subjects in the food effect cohort, who received a single dose of ACI-3024 or placebo in the fasting state followed by a single dose of ACI-3024 in the fed state. Thus, subjects in Cohort S4 received either 2 identical doses of ACI-3024 (6 subjects) or 1 dose of placebo and 1 dose of ACI-3024 (2 subjects). Six subjects of Cohort S4 received 750 mg dose of ACI-3024 and 2 subjects received placebo. After a period of wash-up all 8 subjects of Cohort S4 received a fat-breakfast and a 750 mg dose of ACI-3024.
Cohorts MAD-HV1 to MAD-HV3 comprised 10 elderly non-Japanese male or female subjects, 8 were treated with ACI-3024 and 2 were being given placebo. Cohort MAD-HV4 comprised 5 non-elderly Japanese subjects (4 treated with ACI-3024 and 1 given placebo) and 5 […] (4 treated with ACI-3024 and 1 given placebo). Only subjects from MAD HV3 cohort underwent CSF samplings to explore the CSF inflammatory markers, CSF PK, and CSF PD of ACI-3024. For all subjects, dosing was on […], inclusive, and a final single dose administration occurred on […]. Dose in cohort MAD HV1 was 500 mg of ACI-3024 or placebo, QD, fasted. Dose in cohorts MAD HV2 and MAD HV4 was 500 mg of ACI-3024 or placebo, BID (“bis in die” ie., twice a day), fed. Dose in cohort MAD HV3 was 1400 mg of ACI-3024 or placebo, QD (“quaque die” (once a day), fed.

Data set [2] has as its system healthy subjects. Description: First-in-human study, multiple ascending dose (MAD) part: safety and tolerability. Format: in vivo. Particulars: MAD cohorts. An excerpt:
A First-In-Human, Randomized, Placebo-Controlled, Double-Blind, SAD/MAD Study to Assess the Safety, Tolerability, Pharmacokinetics, and Pharmacodynamics of ACI-3024
The objective of the study is to assess the safety, tolerability, pharmacokinetics (PK), and pharmacodynamics (PD) of single ascending doses (SAD) and multiple ascending doses (MAD) of ACI-3024 in a first-in-human, randomized, placebo-controlled, double-blind, sequential SAD/MAD study with open-label food effect and pharmacodynamic assessment arms. The study comprises different parts to be conducted in Healthy Volunteers: • 1) one Single Ascending Dose (SAD) part in which several cohorts are being investigated with single ascending doses of ACI-3024. The food effect is also explored in this part. • 2) one Multiple Ascending Dose (MAD) part in which several cohorts are being investigated with multiple ascending doses of ACI-3024. Each study part is assessing the safety, tolerability, pharmacokinetics and pharmacodynamics of ACI-3024.
This part was conducted in elderly non-Japanese healthy subjects (MAD HV1 to MAD HV3 cohorts) and in non-elderly Japanese and non-Japanese healthy male subjects (MAD HV4 cohort).
The healthy subject part of Part III was a multiple dose, sequential group study. Overall, 30 healthy elderly male or female non Japanese subjects are being studied in 3 cohorts (Cohorts MAD HV1 to MAD-HV3), with each cohort consisting of 10 subjects. A cohort of 10 healthy non-elderly male Japanese and non-Japanese subjects were enrolled (MAD HV4) to collect safety, tolerability, PK, and PD biomarker data and to enable direct comparisons between non-elderly Japanese and non-Japanese subjects after multiple doses. The dose used in this cohort is based on previously conducted cohorts in non Japanese elderly healthy subjects to assess the effect of multiple doses in non-elderly male Japanese subjects compared to non-elderly non-Japanese male subjects. The MAD HV4 cohort was dosed in parallel with the MAD HV3 cohort. […]

The nature of data set [3]: 4-week toxicity study in mice followed by 2 weeks of recovery. The class given is in vivo, mouse. Particulars: both sexes, CD1, mouse, in vivo, po. As for the experimental part: (§1) This study was conducted to evaluate the potential toxicity of ACI-3024 when given daily by oral gavage to CD1 mice for 4 weeks, followed by a 2-week recovery period. Doses of 100, 300 and 1000 mg/kg were administered by p.o. to 10 animals/sex/group daily. The control animals were administered vehicle. The dose volume was 10 mL/kg for all groups.
(§2) Clinical signs, body weights, food consumption, ophthalmology, clinical pathology were evaluated. For each sex/group, a complete necropsy was conducted on 10 animals at the end of the dosing period and on 6 (only control and high dose groups) surviving animals at end of the recovery period.

In data set [4] the test system is CD1 mice. The description is as above. The class given is in vivo, mouse. The note with it: 1000 mg/kg/day p.o., Day 9. The procedure: as §1, §2
Where [5] appears, read: statistical assessment, healthy volunteers.

As to `Fc1ccc2c3c([nH]c2c1)CCN(c1ccc2oc(N4CCOCC4)nc2c1)C3` [ACI-3024], in data set [1] (both sexes, human, plasma, oral, fasting state, single or multiple doses, read-out: median time of maximum observed plasma concentration (Tmax)), the Tmax lay within 1.25 to 2.5 h. For the same compound, the half-life was 47.5 to 101 h in data set [1] (both sexes, human, plasma, oral, following 14 days of multiple dosing, when calculable, read-out: geometric mean t1/2); over 24 h in data set [1] (human, plasma, oral, humans, read-out: plasma half-life); 27.7 to 60.5 h in data set [1] (male, human, plasma, oral, following single dose administration, read-out: geometric mean t1/2). In data set [1] (fed vs fasting state), the “food effect on rate of absorption” value is “reduced the rate of absorption”. Also, the “food effect: increase of overall exposure” value in data set [1] (fed vs fasting state) is given as “approximately 3 fold”. In addition, the excretion in urine result in data set [1] (healthy volunteers) was “Only a small amount”. The accumulation result in data set [1] (multiple dosing, QD or BID regimen) is “evidence of accumulation”. Also, the “dose proportionality of AUC0-tlast and AUC0-∞” value in data set [1] (setting [5]) is “dose-proportional increase”. For the same compound, the “dose proportionality of Cmax” value in data set [1] (setting [5]) is on record as “subproportional increase”. The “serious adverse events of liver injury possibly related to study drug” value in data set [2] (14 days) came to 2. The “AEs considered related or possibly related to study drug” value in data set [2] (14 days, of 89 AEs) stood at 33. In data set [2] (dose below 1000 mg/day), the SAEs result is “did not show SAEs”. The compound further gave an NOAEL at 4 weeks in data set [3] of 300 mg/kg/day. The “mortality / premature euthanasia” value in data set [4] is reported as “only one female animal was prematurely euthanized”.

What is called NOAEL is the highest dose or exposure tested at which no adverse effect was seen.
